{"source": "ChEMBL document CHEMBL1201862", "about": "“PubChem BioAssay data set” (2004)", "key": {"Tumor necrosis factor": {"molecular_target": "Tumor necrosis factor (Homo sapiens, UniProt P01375)", "sequence (P01375 whole entry)": "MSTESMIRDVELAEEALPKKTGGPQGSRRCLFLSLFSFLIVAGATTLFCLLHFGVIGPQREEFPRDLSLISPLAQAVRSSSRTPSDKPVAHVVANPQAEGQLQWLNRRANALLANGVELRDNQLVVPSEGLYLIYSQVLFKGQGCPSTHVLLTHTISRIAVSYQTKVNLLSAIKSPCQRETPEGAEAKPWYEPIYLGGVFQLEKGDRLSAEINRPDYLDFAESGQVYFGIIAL", "test": "TNFa-triggered NF-kB activation inhibitors, SAR follow-up, cell-based, revised (AID 2337)", "format": "functional"}, "[1]": {"molecular_target": "T1, Nucleotide-binding oligomerization domain-containing protein 1 (Homo sapiens, UniProt Q9Y239)", "T1 sequence (Q9Y239 whole entry)": "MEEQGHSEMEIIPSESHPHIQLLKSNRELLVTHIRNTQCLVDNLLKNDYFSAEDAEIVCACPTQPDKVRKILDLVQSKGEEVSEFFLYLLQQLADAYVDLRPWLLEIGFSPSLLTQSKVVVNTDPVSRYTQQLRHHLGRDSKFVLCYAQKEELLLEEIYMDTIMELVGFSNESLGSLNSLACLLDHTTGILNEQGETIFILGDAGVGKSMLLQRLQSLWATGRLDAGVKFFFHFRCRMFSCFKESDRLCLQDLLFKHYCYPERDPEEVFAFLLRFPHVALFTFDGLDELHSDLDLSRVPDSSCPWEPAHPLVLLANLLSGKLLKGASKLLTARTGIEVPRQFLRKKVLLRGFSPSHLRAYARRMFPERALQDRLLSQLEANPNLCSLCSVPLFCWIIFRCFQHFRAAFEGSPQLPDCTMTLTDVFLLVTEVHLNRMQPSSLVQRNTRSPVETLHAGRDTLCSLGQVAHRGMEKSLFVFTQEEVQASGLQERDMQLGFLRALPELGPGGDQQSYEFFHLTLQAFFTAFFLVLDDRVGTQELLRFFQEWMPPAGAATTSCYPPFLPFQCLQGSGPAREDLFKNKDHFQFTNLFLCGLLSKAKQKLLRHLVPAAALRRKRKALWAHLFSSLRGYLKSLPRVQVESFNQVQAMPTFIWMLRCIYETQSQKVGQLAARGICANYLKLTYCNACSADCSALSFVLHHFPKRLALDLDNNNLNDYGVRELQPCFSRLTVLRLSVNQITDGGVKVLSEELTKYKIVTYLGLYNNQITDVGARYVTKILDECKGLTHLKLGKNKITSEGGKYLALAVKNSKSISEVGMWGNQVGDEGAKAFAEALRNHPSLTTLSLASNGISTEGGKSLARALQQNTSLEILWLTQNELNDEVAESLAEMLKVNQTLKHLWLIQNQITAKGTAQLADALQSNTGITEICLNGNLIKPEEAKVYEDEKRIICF", "test": "NOD1 signaling inhibitors, SAR follow-up, revised (AID 2333)", "format": "functional"}, "[2]": {"molecular_target": "Luciferin 4-monooxygenase (Photinus pyralis, UniProt P08659)", "sequence (P08659 whole entry)": "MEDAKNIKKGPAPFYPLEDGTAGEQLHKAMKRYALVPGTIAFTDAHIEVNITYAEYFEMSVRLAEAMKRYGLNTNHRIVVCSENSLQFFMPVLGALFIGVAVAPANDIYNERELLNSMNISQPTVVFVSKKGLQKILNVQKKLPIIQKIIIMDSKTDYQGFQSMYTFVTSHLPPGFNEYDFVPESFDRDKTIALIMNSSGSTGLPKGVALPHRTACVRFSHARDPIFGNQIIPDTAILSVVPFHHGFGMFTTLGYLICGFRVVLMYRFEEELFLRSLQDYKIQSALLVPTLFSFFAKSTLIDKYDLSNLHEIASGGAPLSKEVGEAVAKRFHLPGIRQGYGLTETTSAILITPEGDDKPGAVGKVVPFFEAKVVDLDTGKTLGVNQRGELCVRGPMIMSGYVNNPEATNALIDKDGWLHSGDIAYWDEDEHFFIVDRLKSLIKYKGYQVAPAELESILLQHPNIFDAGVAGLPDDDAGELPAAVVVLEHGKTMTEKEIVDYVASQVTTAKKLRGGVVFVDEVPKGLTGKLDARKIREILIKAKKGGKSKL", "test": "firefly luciferase enzyme inhibitors, dose response, biochemical, dry powder samples, plate reader (AID 588451)"}, "H4 [3]": {"system": "H4", "test": "inhibitors of control reporter signal in H4 cells – cell-based, plate reader, dry powder samples, counter-screen for prion reporter project, dose response (AID 540255)", "format": "functional", "conditions": "Homo sapiens"}, "H4 [4]": {"system": "H4", "test": "Amyloid Precursor 5' UTR neuroblastoma cell reporter line Measured in Cell-Based System Using Plate Reader - 2078-04_Inhibitor_Dose_DryPowder_Activity. [Related pubchem assays (depositor defined):AID488894]", "format": "functional", "conditions": "Homo sapiens"}, "H4 [5]": {"system": "H4", "test": "Inhibitors of Prion Protein 5' UTR mRNA Measured in Cell-Based System Using Plate Reader - 2078-01_Inhibitor_Dose_DryPowder_Activity. [Related pubchem assays (depositor defined):AID488894]", "format": "functional", "conditions": "Homo sapiens"}, "HEK293": {"system": "HEK293", "test": "cells", "conditions": "Homo sapiens"}, "Candida albicans [6]": {"system": "Candida albicans", "test": "growth inhibition of resistant C. albicans, dose response, CaCi-8 strain, fluconazole, dry powder, set 4 (AID 488950)", "format": "functional, organism-based"}, "Candida albicans [7]": {"system": "Candida albicans", "test": "fluconazole resistance reversal in C. albicans, dose response, CaCi-2 strain, Alamar Blue, dry powder, set 4 (AID 488943)", "format": "functional, organism-based"}, "NIH3T3": {"system": "NIH3T3", "test": "mammalian cell toxicity in NIH-3T3 fibroblasts, dose response, cytotoxicity control for antifungal resistance reversal project, Alamar Blue, dry powder, set 2 (AID 488911)", "format": "functional, cell-based", "conditions": "Mus musculus"}, "Candida albicans [8]": {"system": "Candida albicans", "test": "growth inhibition of azole-resistant C. albicans, dose response, CaCi-8 strain, Alamar Blue, dry powder, set 2 (AID 488909)", "format": "functional, organism-based"}, "Candida albicans [9]": {"system": "Candida albicans", "test": "Candida albicans growth inhibition, agent alone, dose response, counter-screen for reversing antifungal drug resistance, CaCi-2 strain, no fluconazole, dry powder, set 4 (AID 488932)", "format": "functional, organism-based"}, "[10]": {"molecular_target": "T2, Sentrin-specific protease 8 (Homo sapiens, UniProt Q96LD8)", "T2 sequence (Q96LD8 whole entry)": "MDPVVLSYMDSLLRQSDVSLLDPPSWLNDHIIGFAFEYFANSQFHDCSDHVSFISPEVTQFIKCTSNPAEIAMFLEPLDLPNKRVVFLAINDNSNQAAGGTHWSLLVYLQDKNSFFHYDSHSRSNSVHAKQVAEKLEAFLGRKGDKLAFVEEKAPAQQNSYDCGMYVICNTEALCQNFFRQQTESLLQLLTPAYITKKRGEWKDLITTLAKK", "test": "SENP8 protease inhibitors, SAR follow-up, biochemical, luminescence (AID 504501)", "format": "functional"}, "Caspase-3": {"molecular_target": "T3, Caspase-3 (Homo sapiens, UniProt P42574)", "T3 sequence (P42574 whole entry)": "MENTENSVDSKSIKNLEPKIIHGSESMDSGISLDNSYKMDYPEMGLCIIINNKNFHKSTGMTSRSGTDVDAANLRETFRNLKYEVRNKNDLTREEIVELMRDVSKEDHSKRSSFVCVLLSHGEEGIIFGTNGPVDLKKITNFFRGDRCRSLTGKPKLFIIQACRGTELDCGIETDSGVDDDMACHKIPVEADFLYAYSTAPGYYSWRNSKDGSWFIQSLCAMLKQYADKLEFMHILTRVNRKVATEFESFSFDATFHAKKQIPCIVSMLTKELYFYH", "test": "SAR Analysis of small molecule inhibitors of Sentrin-specific proteases (SENPs) using a Caspase-3 Selectivity assay. [Related pubchem assays (depositor defined):AID2540, AID2599, AID434973, AID489001]", "format": "functional"}, "[11]": {"molecular_target": "T4, Sentrin-specific protease 6 (Homo sapiens, UniProt Q9GZR1)", "T4 sequence (Q9GZR1 whole entry)": "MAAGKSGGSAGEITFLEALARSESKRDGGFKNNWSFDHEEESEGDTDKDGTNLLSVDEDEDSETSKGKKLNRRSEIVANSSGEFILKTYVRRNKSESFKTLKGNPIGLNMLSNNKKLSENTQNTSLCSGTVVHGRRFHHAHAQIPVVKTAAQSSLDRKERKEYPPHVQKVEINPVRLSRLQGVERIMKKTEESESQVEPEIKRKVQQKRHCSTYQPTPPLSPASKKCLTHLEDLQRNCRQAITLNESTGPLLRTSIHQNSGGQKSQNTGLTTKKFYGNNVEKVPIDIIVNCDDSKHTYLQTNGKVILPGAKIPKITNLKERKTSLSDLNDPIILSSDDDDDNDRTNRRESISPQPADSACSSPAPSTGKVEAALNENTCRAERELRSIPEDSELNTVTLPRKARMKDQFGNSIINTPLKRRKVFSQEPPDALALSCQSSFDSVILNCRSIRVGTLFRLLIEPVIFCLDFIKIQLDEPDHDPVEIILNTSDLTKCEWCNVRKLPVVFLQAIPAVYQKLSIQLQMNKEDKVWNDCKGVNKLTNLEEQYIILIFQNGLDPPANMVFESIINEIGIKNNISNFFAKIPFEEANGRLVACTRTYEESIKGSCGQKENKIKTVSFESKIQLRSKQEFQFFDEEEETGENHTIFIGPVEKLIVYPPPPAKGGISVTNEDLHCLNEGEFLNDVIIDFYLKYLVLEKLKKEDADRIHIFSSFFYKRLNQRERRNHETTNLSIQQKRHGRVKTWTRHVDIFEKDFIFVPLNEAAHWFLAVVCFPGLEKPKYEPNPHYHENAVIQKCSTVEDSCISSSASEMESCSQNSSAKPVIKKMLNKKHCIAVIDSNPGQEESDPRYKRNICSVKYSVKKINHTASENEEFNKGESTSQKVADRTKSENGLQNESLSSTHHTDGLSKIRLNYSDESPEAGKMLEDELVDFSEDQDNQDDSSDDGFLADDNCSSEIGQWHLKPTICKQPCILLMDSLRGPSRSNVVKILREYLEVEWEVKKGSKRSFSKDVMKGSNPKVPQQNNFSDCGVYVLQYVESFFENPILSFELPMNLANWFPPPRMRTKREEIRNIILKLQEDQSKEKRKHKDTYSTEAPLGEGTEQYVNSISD", "test": "SAR Analysis of small molecule inhibitors of Sentrin-specific protease 6 (SENP6) using a Luminescent assay. [Related pubchem assays (depositor defined):AID2582, AID2599]", "format": "functional"}, "[12]": {"molecular_target": "T5, Sentrin-specific protease 7 (Homo sapiens, UniProt Q9BQF6)", "T5 sequence (Q9BQF6 whole entry)": "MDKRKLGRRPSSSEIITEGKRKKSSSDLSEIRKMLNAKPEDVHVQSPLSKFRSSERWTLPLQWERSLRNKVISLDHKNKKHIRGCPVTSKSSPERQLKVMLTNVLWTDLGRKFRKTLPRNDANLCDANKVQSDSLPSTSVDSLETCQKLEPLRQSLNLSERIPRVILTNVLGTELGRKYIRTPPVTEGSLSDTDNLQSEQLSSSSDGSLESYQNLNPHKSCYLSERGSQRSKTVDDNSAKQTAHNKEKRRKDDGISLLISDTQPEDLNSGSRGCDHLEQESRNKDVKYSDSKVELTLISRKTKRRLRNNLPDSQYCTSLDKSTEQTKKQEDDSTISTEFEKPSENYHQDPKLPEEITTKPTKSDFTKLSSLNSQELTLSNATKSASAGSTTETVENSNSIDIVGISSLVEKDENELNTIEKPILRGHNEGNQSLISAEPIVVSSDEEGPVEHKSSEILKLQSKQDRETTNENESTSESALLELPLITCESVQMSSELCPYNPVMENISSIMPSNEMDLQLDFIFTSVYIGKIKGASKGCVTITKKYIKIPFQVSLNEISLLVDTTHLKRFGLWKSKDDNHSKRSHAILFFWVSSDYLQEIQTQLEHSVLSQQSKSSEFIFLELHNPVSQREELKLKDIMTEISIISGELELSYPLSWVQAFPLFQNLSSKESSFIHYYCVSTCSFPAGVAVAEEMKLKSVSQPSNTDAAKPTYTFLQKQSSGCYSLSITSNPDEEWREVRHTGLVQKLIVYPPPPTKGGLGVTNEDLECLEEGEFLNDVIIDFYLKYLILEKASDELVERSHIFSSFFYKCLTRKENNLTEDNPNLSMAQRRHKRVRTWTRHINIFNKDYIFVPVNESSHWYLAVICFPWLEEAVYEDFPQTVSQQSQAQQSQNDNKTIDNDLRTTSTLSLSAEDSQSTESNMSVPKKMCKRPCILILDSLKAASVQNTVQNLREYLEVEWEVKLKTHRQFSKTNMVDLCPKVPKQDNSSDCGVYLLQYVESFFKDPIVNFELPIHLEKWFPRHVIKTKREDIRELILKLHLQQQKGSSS", "test": "SENP7 protease inhibitors, SAR follow-up, biochemical, luminescence (AID 504497)", "format": "functional"}}, "note": "The source made the active and inactive calls."}
{"smiles": "CC(C)(C)c1ccc(-c2nc3ccccc3s2)cc1", "values": [{"measurement": "IC50", "setting": "Tumor necrosis factor", "value": "0.246 µM (active)"}, {"measurement": "IC50", "setting": "[1]", "value": "0.0318 µM (active)"}, {"measurement": "AC50", "setting": "[2]", "value": "25.8 µM (active)"}, {"measurement": "AC50", "setting": "H4 [3]", "value": "0.205 µM (active)"}, {"measurement": "AC50", "setting": "H4 [4]", "value": "0.00226 µM (active)"}, {"measurement": "AC50", "setting": "H4 [5]", "value": "0.011 µM (active)"}, {"measurement": "IC50", "setting": "HEK293", "value": "> 20 µM (inactive)"}]}
{"smiles": "O=C(c1ccc(Cl)cc1)N1CCN(c2cccnc2)CC1", "values": [{"measurement": "AC50", "setting": "Candida albicans [6]", "value": "20.4 µM (active)"}, {"measurement": "AC50", "setting": "Candida albicans [7]", "value": "25 µM (active)"}, {"measurement": "AC50", "setting": "NIH3T3", "value": "190 µM (active)"}, {"measurement": "AC50", "setting": "Candida albicans [8]", "value": "30.5 µM (active)"}, {"measurement": "AC50", "setting": "Candida albicans [9]", "value": "43.5 µM (active)"}]}
{"smiles": "N#Cc1cccc(-c2nc(/C=C/c3ccc(F)cc3)no2)c1", "values": [{"measurement": "IC50", "setting": "[10]", "value": "> 99 µM (inactive)"}, {"measurement": "IC50", "setting": "Caspase-3", "value": "> 99 µM (inactive)"}, {"measurement": "IC50", "setting": "[11]", "value": "> 99 µM (inactive)"}, {"measurement": "IC50", "setting": "[12]", "value": "> 99 µM (inactive)"}]}
